Compound	melting point [°C]
O=C(NCCc1ccc(C(F)(F)F)cc1F)c1ncccc1C(F)(F)F [A.001, 3-Trifluoromethyl-pyridine-2-carboxylic acid [2-(2-fluoro-4-trifluoromethyl-phenyl)-ethyl]-amide]	95
O=C(NCCc1ccc(Cl)cc1F)c1ncccc1C(F)(F)F [A.002, 3-Trifluoromethyl-pyridine-2-carboxylic acid [2-(4-chloro-2-fluoro-phenyl)-ethyl]-amide]	69
O=C(NCCc1ccc(F)cc1F)c1ncccc1C(F)(F)F [A.005]	78
Cc1cccnc1C(=O)NCC(F)(F)c1ccc(Cl)cc1Cl [A.009, N-[2-(2,4-dichlorophenyl)-2,2-difluoro-ethyl]-3-methyl-pyridine-2-carboxamide]	117 to 118
